Converted amounts (≈) assume the structure as drawn.
Experiments:
[1] = Stability in human liver microsomes; type: in vitro ADME; details: half-life
Method in brief: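 Pooled liver microsomes (human mixed gender; male Sprague-Dawley rat; male CD-1 mouse) at final 0.1 mg/mL protein, compound 0.1 μM, 100 mM potassium phosphate pH 7.4, NADPH-initiated, sampled 0–60 min. Parent remaining by HPLC-MS/MS vs time zero; half-life from log-linear slope assuming first-order kinetics, plus Clint.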

CYP1A = biological target: T1, CYP1A (Homo sapiens, UniProt P05177); experiment: CYP450 inhibition assay, pooled human liver microsomes, phenacetin substrate; details: for inhibition at 10 min, 10 µM: both, human, pooled human liver microsomes, pH 7.4, probe phenacetin; for CYP 450 Inhibition CYP1A: at 10 μM
T1 sequence (P05177 1-516): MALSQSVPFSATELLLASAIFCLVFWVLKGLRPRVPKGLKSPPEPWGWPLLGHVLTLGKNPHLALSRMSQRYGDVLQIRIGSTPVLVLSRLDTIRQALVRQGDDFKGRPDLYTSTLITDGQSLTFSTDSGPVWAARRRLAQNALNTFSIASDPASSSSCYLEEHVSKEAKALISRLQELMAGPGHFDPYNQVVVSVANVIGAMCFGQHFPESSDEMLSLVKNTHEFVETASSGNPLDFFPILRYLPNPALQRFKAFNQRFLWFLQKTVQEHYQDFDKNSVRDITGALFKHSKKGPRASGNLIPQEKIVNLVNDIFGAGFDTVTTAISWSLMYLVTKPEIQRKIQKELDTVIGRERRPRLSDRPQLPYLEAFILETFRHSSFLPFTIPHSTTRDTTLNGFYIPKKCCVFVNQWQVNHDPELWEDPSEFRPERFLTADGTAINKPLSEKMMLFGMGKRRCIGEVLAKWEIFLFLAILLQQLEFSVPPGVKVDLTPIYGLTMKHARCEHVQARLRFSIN

CYP2B6 = biological target: T2, CYP2B6 (Homo sapiens, UniProt P20813); experiment: CYP450 inhibition assay, pooled human liver microsomes, bupropion substrate; details: for inhibition at 10 min, 10 µM: both, human, pooled human liver microsomes, pH 7.4, probe bupropion; for CYP 450 Inhibition CYP2B6: at 10 μM
T2 sequence (P20813 1-491): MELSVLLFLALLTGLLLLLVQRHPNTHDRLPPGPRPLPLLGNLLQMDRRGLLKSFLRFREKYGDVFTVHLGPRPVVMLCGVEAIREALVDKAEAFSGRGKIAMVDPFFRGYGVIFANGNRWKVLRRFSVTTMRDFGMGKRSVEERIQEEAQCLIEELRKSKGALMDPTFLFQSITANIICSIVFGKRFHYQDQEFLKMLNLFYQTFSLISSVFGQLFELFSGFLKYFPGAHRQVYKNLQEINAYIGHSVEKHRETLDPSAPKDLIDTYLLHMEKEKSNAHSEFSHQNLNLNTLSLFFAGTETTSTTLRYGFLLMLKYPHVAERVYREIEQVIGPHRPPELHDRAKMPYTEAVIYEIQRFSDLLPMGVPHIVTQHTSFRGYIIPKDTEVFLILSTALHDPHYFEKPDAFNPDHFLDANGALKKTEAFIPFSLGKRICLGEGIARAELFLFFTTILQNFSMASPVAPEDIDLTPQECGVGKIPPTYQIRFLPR

CYP3A = experiment: CYP450 inhibition assay, pooled human liver microsomes, midazolam substrate; details: for inhibition at 10 min, 10 µM: both, human, pooled human liver microsomes, pH 7.4, probe midazolam; for CYP 450 Inhibition CYP3A midazolam: at 10 μM, midazolam substrate
[2] = Kinetic solubility in PBS pH 7.4; type: physicochemical; details: Dulbecco's PBS buffer, aqueous buffer, kinetic from dmso stock; PBS pH 7.4, 24 h room temperature, 2% DMSO
Protocol: Kinetic solubility. Dulbecco's PBS buffer was used (NaCl 137 mM, KCl 2.7 mM, Na2HPO4 8.1 mM, KH2PO4 1.5 mM with pH 7.4). The test compound is prepared at 200 μM in the PBS buffer from a 10 mM DMSO stock solution. The final DMSO concentration is 2%. The buffer samples were mixed thoroughly followed by incubation at room temperature for 24 h. At the end of the incubation, the buffer samples were centrifuged and supernatants were then injected for the HPLC analysis. A calibration standard of the test compound was prepared at 200 μM in methanol/water (3/2, v/v) from a 10 mM DMSO stock solution on the day of HPLC analysis. The analysis was conducted by HPLC-UV/VIS with photodiode array detection, with monitoring at 205, 230, 260, and 300 nm wavelengths. The HPLC system consisted of a C18 column using a gradient of A and B (A=12 mM ammonium formate, 6 mM formic acid in water, pH 4.0, B=6 mM ammonium formate, 3 mM formic acid acetonitrile/water (9/1, v/v)). Reference compounds used were metoprolol, rifampicin, ketoconazole, phenytoin, haloperidol, simvastatin, diethylstilbestrol, and tamoxifen, ranking from fully soluble (200 μM) to poorly soluble (<1μM). […] The range of the assay was approximately 0.5 μM to 200 μM. The chromatographic purity (%) was determined as the peak area of the principal peak relative to the total integrated peak areas in the HPLC chromatogram of the calibration standard.

[3] = Stability in mouse liver microsomes; type: in vitro ADME; details: half-life
Protocol: Stability in liver microsomes. Human, mouse and rat liver microsomes were used to assess the metabolic stability for the compounds. Metabolic stability was determined in 0.5 mg/mL human, mouse or rat liver microsomes at a compound concentration of 1 μM in 100 mM potassium phosphate buffer (pH 7.4) in a total incubation volume of 500 μL by Eurofins. The assay matrix was: human liver microsomes: mixed gender and pool of 50, rat liver microsomes: male, Sprague-Dawley, pool of 100 or more and mouse liver microsomes: male,CD-1, pool of 250 or more. Final microsomal protein concentration: 0.1mg/mL. The test concentration was 0.1 μM with 0.01% DMSO, 0.25% acetonitrile and 0.25% methanol by default. […] The reaction was initiated by adding NADPH-generating system and was incubated for 0, 15, 30, 45, and 60 min. The reaction was stopped by transferring the incubation mixture to acetonitrile/methanol. Samples were then mixed and centrifuged. Four reference compounds were tested in each assay. Propranolol and imipramine are relatively stable, whereas verapamil and terfenadine are readily metabolized inhuman liver microsomes. Samples were analyzed by HPLC-MS/MS using selected reaction monitoring. The HPLC system consisted of a binary LC pump with autosampler, a C-18 column, and a gradient. Peak areas corresponding to the test compound were recorded. The compound remaining was calculated by comparing the peak area at each time point to time zero. The half-life was calculated from the slope of the initial linear range of the logarithmic curve of compound remaining (%) vs. time, assuming first order kinetics. In addition, the intrinsic clearance (Clint) was calculated.^19,20

human AT1R = biological target: T3, human AT1R (Homo sapiens, UniProt P30556); type: binding; details: HEK-293 cell membranes
T3 construct: host or cells: HEK-293
T3 sequence (P30556 1-359): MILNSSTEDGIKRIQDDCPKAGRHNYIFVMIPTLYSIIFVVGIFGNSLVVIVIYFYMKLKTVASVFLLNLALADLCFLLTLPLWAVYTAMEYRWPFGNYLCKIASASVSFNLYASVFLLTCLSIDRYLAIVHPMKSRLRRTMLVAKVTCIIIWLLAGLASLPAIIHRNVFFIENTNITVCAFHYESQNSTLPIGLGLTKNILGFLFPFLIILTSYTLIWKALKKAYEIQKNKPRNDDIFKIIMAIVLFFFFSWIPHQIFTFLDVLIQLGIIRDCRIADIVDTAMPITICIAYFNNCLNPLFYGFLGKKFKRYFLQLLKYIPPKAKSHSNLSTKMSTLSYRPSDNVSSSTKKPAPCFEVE

Structure (SMILES)	Stability in liver microsomes HLM [1]	inhibition at 10 min, 10 µM (CYP1A)	inhibition at 10 min, 10 µM (CYP2B6)	inhibition at 10 min, 10 µM (CYP3A)	solubility kinetic at 24 h [2]	Stability in liver microsomes MLM [3]	Ki (human AT1R)	CYP 450 Inhibition CYP1A (CYP1A)	CYP 450 Inhibition CYP2B6 (CYP2B6)	CYP 450 Inhibition CYP3A midazolam (CYP3A)
COC(=O)NS(=O)(=O)c1sc(CC(C)C)nc1-c1ccc(Cn2ccnc2C(C)(C)C)cc1 [Example 3, Methyl ((4-(4-((2-(tert-butyl)-1H-imidazol-1-yl)methyl)phenyl)-2-isobutylthiazol-5-yl)sulfonyl) carbamate]	>60 min	–	–	–	195 µM (≈ 95.7 µg/mL)	>60 min	~1000 nM	8.4%	24%	5.4%
CCCCOC(=O)NS(=O)(=O)c1sc(CC(C)C)nc1-c1ccc(Cn2ccnc2C(C)(C)C)cc1 [Example 4, Butyl ((4-(4-((2-(tert-butyl)-1H-imidazol-1-yl)methyl)phenyl)-2-isobutylthiazol-5-yl)sulfonyl) carbamate]	45 min	–	–	–	180 µM (≈ 95.9 µg/mL)	7 min	~1000 nM	−7.3%	29%	24%
CCCCOC(=O)[N-]S(=O)(=O)c1sc(CC(C)C)cc1-c1ccc(Cn2ccnc2C(C)(C)C)cc1.[K+] [Example 11B, Potassium (butoxycarbonyl)((3-(4-((2-(tert-butyl)-1H-imidazol-1-yl)methyl)phenyl)-5-isobutylthiophen-2-yl)sulfonyl)amide]	11 min	8.4%	51%	-5.1%	> 200 µM	10 min	~1000 nM	–	–	–

Results, then the compound that gave them:

Stability in liver microsomes HLM [1]	inhibition at 10 min, 10 µM (CYP1A)	inhibition at 10 min, 10 µM (CYP2B6)	inhibition at 10 min, 10 µM (CYP3A)	solubility kinetic at 24 h [2]	Stability in liver microsomes MLM [3]	Ki (human AT1R)	CYP 450 Inhibition CYP1A (CYP1A)	CYP 450 Inhibition CYP2B6 (CYP2B6)	CYP 450 Inhibition CYP3A midazolam (CYP3A)	Structure (SMILES)
>60 min	5.7%	28%	1.3%	> 200 µM	>60 min	~1000 nM	–	–	–	COC(=O)[N-]S(=O)(=O)c1ccc(CC(C)C)cc1-c1ccc(Cn2ccnc2C(C)(C)O)cc1.[K+] [Example 8B, Potassium ((4′-((2-(2-hydroxypropan-2-yl)-1H-imidazol-1-yl)methyl)-5-isobutyl-[1,1′-biphenyl]-2-yl)sulfonyl)(methoxycarbonyl)amide]
>60 min	11%	18%	0%	140 µM (≈ 67.7 µg/mL)	>60 min	~1000 nM	–	–	–	COC(=O)NS(=O)(=O)c1ccc(CC(C)C)cc1-c1ccc(Cn2ccnc2C(C)(C)C)cc1 [Example 1A, Methyl ((4′-((2-(tert-butyl)-1H-imidazol-1-yl)methyl)-5-isobutyl-[1,1′-biphenyl]-2-yl)sulfonyl)carbamate]

From US20230159467A1, “NOVEL COMPOUNDS USEFUL IN THE TREATMENT AND/OR PREVENTION OF A DISEASE, DISORDER OR CONDITION ASSOCIATED WITH ANGIOTENSIN II” (Vicore Pharma AB, priority 2020, published 2023)
